EPA's CvTdb concentration-time database

Columns and labels:
Rat [1] = test: concentration in plasma after dosing; details: 0.25 h; dosed: 2-Hydroxy-4-methoxybenzophenone; 500 mg/kg; oral; Male; F344
Rat [2] = test: concentration in plasma after dosing; details: dosed: 2-Hydroxy-4-methoxybenzophenone, 250 mg/kg, oral, Female, F344
Mouse [3] = test: concentration in plasma after dosing; details: 2 h; dosed: 2-Hydroxy-4-methoxybenzophenone; 500 mg/kg; oral; Female; B6C3F1
Mouse [4] = test: concentration in plasma after dosing; details: 0.25 h; dosed: 2-Hydroxy-4-methoxybenzophenone; 500 mg/kg; oral; Female; B6C3F1
Mouse [5] = test: concentration in plasma after dosing; details: 0.25 h; dosed: 2-Hydroxy-4-methoxybenzophenone; 250 mg/kg; oral; Male; B6C3F1
Mouse [6] = test: concentration in plasma after dosing; details: 0.25 h; dosed: 2-Hydroxy-4-methoxybenzophenone; 250 mg/kg; oral; Female; B6C3F1
Mouse [7] = test: concentration in plasma after dosing; details: 10 min; dosed: 2-Hydroxy-4-methoxybenzophenone; 250 mg/kg; oral; Female; B6C3F1
Mouse [8] = test: concentration in plasma after dosing; details: 3 h; dosed: 2-Hydroxy-4-methoxybenzophenone; 50 mg/kg; iv; Male; B6C3F1
Rat [9] = test: concentration in plasma after dosing; details: dosed: 2-Hydroxy-4-methoxybenzophenone, 100 mg/kg, oral, Female, F344
Mouse [10] = test: concentration in plasma after dosing; details: 10 min; dosed: 2-Hydroxy-4-methoxybenzophenone; 250 mg/kg; oral; Male; B6C3F1
Mouse [11] = test: concentration in plasma after dosing; details: 2 h; dosed: 2-Hydroxy-4-methoxybenzophenone; 250 mg/kg; oral; Female; B6C3F1
Rat [12] = test: concentration in plasma after dosing; details: dosed: Nitrite, 80 mg/kg, oral, Female, F344
Rat [13] = test: concentration in plasma after dosing; details: 2 min; dosed: Nitrite; 40 mg/kg; oral; Female; F344
Rat [14] = test: concentration in liver after dosing; details: 3 h; dosed: Perfluorooctanoic acid; 80 mg/kg; oral; Female; Harlan Sprague Dawley
Rat [15] = test: concentration in kidney after dosing; details: 528 h; dosed: Perfluorooctanoic acid; 12 mg/kg; oral; Male; Harlan Sprague Dawley
Rat [16] = test: concentration in kidney after dosing; details: 48 h; dosed: Perfluorooctanoic acid; 80 mg/kg; oral; Female; Harlan Sprague Dawley
Rat [17] = test: concentration in plasma after dosing; details: 3 h; dosed: Fluorotelomer alcohol 8+2; 12 mg/kg; oral; Male; Harlan Sprague Dawley
Rat [18] = test: concentration in liver after dosing; details: 3 h; dosed: Perfluorooctanoic acid; 12 mg/kg; oral; Male; Harlan Sprague Dawley
Rat [19] = test: concentration in kidney after dosing; details: 24 h; dosed: Perfluorooctanoic acid; 80 mg/kg; oral; Female; Harlan Sprague Dawley
Rat [20] = test: concentration in plasma after dosing; details: dosed: 678-39-7, 40 mg/kg, iv, Male, F344
Rat [21] = test: concentration in plasma after dosing; details: dosed: 678-39-7, 40 mg/kg, iv, Male, F344; remark: listed apart in the source
Rat [22] = test: concentration in plasma after dosing; details: dosed: 678-39-7, 40 mg/kg, iv, Male, F344; remark: listed apart in the source
Rat [23] = test: concentration in liver after dosing; details: 12 h; dosed: Perfluorooctanoic acid; 12 mg/kg; oral; Male; Harlan Sprague Dawley
Rat [24] = test: concentration in kidney after dosing; details: 12 h; dosed: Perfluorooctanoic acid; 80 mg/kg; oral; Female; Harlan Sprague Dawley
Rat [25] = test: concentration in plasma after dosing; details: dosed: 678-39-7, 12 mg/kg, iv, Male, F344
Rat [26] = test: concentration in liver after dosing; details: 6 h; dosed: Fluorotelomer alcohol 8+2; 80 mg/kg; oral; Female; Harlan Sprague Dawley
Rat [27] = test: concentration in brain after dosing; details: 0.5 h; dosed: Potassium Perfluorobutane Sulfonate; 20 mg/kg; oral; Female; Harlan Sprague Dawley
Rat [28] = test: concentration in liver after dosing; details: 12 h; dosed: Potassium Perfluorobutane Sulfonate; 20 mg/kg; oral; Male; Harlan Sprague Dawley
Rat [29] = test: concentration in plasma after dosing; details: 1.5 h; dosed: Potassium Perfluorobutane Sulfonate; 4 mg/kg; oral; Male; Harlan Sprague Dawley
Rat [30] = test: concentration in plasma after dosing; details: dosed: Potassium Perfluorobutane Sulfonate, 4 mg/kg, oral, Male, Harlan Sprague Dawley
Rat [31] = test: concentration in kidney after dosing; details: 3 h; dosed: Potassium Perfluorobutane Sulfonate; 20 mg/kg; oral; Male; Harlan Sprague Dawley
rat [32] = test: concentration in blood after dosing; negative times count back from the end of exposure; details: dosed: methanol, inhalation, duration: 6 hr, male

COc1ccc(C(=O)c2ccccc2)c(O)c1 [2-Hydroxy-4-methoxybenzophenone]
Details	concentration in plasma [ng/mL]
Mouse [3]	4310
Mouse [4]	411
Mouse [5]	231
Mouse [6]	266
Mouse [7]	625
Mouse [8]	175
Mouse [10]	93.1
Mouse [11]	55.6
Rat [1]	902

concentration in plasma [ng/mL]
Details	Rat [2]	Rat [9]
0.25 h	453	84.6
4 h	19	16.2

O=N[O-] [Nitrite]
Rat [12]
Details	concentration in plasma [ng/mL]
1 h	21600
2 h	13000

Details	concentration in plasma [ng/mL]
Rat [13]	1900

O=C(O)C(F)(F)C(F)(F)C(F)(F)C(F)(F)C(F)(F)C(F)(F)C(F)(F)F [Perfluorooctanoic acid]
Details	concentration in kidney [ng/g]	concentration in liver [ng/g]	concentration in plasma [ng/mL]
Rat [14]	–	32900	–
Rat [15]	6860	–	–
Rat [16]	703	–	–
Rat [17]	–	–	380
Rat [18]	–	41100	–
Rat [19]	14000	–	–
Rat [23]	–	56700	–
Rat [24]	93700	–	–
Rat [26]	–	1600	–

Details	concentration in plasma [ng/mL]
Rat [20], 0.25 h	970
Rat [20], 6 h	1760
Rat [21], 0.5 h	234000
Rat [21], 3 h	2800
Rat [21], 5 min	172
Rat [21], 12 h	25600
Rat [22], 0.5 h	1400
Rat [22], 9 h	716
Rat [25], 1 h	378
Rat [25], 6 h	480

O=S(=O)([O-])C(F)(F)C(F)(F)C(F)(F)C(F)(F)F.[K+] [Potassium Perfluorobutane Sulfonate]
Details	concentration in brain [ng/g]	concentration in kidney [ng/g]	concentration in liver [ng/g]	concentration in plasma [ng/mL]
Rat [27]	511	–	–	–
Rat [28]	–	–	9420	–
Rat [29]	–	–	–	12600
Rat [31]	–	27100	–	–

Rat [30]
Details	concentration in plasma [ng/mL]
3 h	15100
5 min	320

CO [methanol]
rat [32]
Details	concentration in blood [ng/mL]
-206 s, 2000 ppm, Fischer-344, during exposure	80600
-5.613 h, 2000 ppm, Fischer-344, during exposure	18900
-5.151 h, 2000 ppm, Fischer-344, during exposure	24300
-3.08 h, 2000 ppm, Fischer-344, during exposure	59900
0.4288 h, 200 ppm, CDF(F344)/CrlBR	2410
0.9278 h, 200 ppm, CDF(F344)/CrlBR	2010
1.006 h, 2000 ppm, Fischer-344	83800
1.926 h, 200 ppm, CDF(F344)/CrlBR	1400
2.976 h, 2000 ppm, Fischer-344	53300
2.996 h, 200 ppm, CDF(F344)/CrlBR	1200
4.511 h, 200 ppm, CDF(F344)/CrlBR	1510
5.974 h, 2000 ppm, Fischer-344	16700
8.995 h, 2000 ppm, Fischer-344	702
11.92 h, 2000 ppm, Fischer-344	702

rat [32], 200 ppm, CDF(F344)/CrlBR, during exposure
Details	concentration in blood [ng/mL]
-5.615 h	1400
-5.115 h	4520
-3.047 h	3110
-0.07 h	3510
